“Also recorded” adds a separate entry of the source. Values belong to the compound of their own block, whether it stands above or below them.
Columns and labels:
HAP1 NUDT5 KO cells = test: Cell viability (CellTiter-Glo) 6-TG assay in HAP1 NUDT5 KO cells; assay type: cell-based, human; conditions: Fig. 1A
Description: (§1) HEK293, MCF7, A549 were cultured in DMEM + 10% FBS, HAP1 and HL-60 were cultured in IMDM + 10% FBS. All cell lines were maintained at 37 °C and 5% CO2.
(§2) Cells were counted and adjusted to a density of 25,000 cells/mL in culture medium. […] Plates were sealed with breathable film and incubated at 37 °C with 5% CO₂ for 72 hours. Cell viability was assessed using the CellTiter-Glo Luminescent Cell Viability Assay, following the manufacturer’s protocol (Promega). Luminescence was measured using a PHERAstar FS or FSX plate reader, and data were analyzed using GraphPad Prism software (versions 9 or 10). Results were normalized to the vehicle control (DMSO).

HAP1 cell lines = test: TH1760/6-TG cell viability assay in HAP1 cell lines; assay type: cell-based, human
Description: After 72 h incubation, cell viability was measured using the CellTiter-Glo assay (Promega). Signals were normalized to the control condition.

NUDT5 and CRBN = target: T1, NUDT5 and CRBN (Homo sapiens, UniProt Q96SW2+Q9UKK9); test: NanoBRET ternary complex formation assay NanoLuc-NUDT5 / HaloTag-CRBN in HEK293 cells; assay type: cell-based; conditions: intact HEK293 cells
T1 construct: expressed in transfected cells; host or cells: HEK293
Description: NanoBRET ternary complex assays were performed following the manufacturer’s instructions (Promega). […] After 4 h or 20 h of incubation, a mix of substrate in assay medium was added to each well. Donor and acceptor signals were measured in a PHERAstar FSX or FS plate reader and analyzed by GraphPad Prism (v.9 or v.10). The acceptor/donor ratio was calculated, the no ligand background signal was subtracted, and multiplied by 1000 to yield mBRET units. Data were then normalized to DMSO.

NUDT5 [1] = target: T2, NUDT5 (Homo sapiens, UniProt Q96SW2+Q9UKK9); test: Western blot NUDT5 degradation in HEK293 cells; assay type: cell-based
Description: (§3) Pellets were lysed on ice using RIPA buffer (25 mM Tris (pH 7.5), 150 mM NaCl, 1% Igepal, 1% SDS, 0.1% SDC, 1x protease inhibitor (Roche, cOmplete mini, 11836170001), 1x phosphatase (Thermo Scientific, Halt, 78429), 0.1% benzonase (Merck, E1014-5KU)), incubated for 15 min and then centrifuged for 20 min at 4 °C at maximum speed in a table-top centrifuge. […] Membranes were blocked with 6% milk in PBS-T for 1 h at RT, washed, and then incubated with primary antibody diluted in PBS-T supplemented with 0.1% NaN3 overnight at 4 °C. Membranes were incubated with fluorophore-conjugated secondary antibodies, Alexa Fluor 680 anti-rabbit IgG (Life Technologies, A21109), Alexa Fluor 750 anti-mouse IgG (Life Technologies, A21037) diluted 1:5000 in 2% milk PBS-T, washed and imaged with an Odyssey imager (Licor).

NUDT5 [2] = target: T3, NUDT5 (Homo sapiens, UniProt Q9UKK9); test: Western blot NUDT5 degradation in HEK293 cells; assay type: cell-based; conditions: 20 h, Western blot, read-out: DC50 (half-maximal degradation concentration) of NUDT5
Description: as §3

ZFP91 = target: T4, ZFP91 (Homo sapiens, UniProt Q96JP5); test: Western blot of ZFP91 levels in HEK293 and HAP1 cells; assay type: cell-based; conditions: 100 nM, 24 h
T4 construct: endogenous in cells; host or cells: HEK293 and HAP1
Description: as §3

HAP1 cells [3] = test: Untargeted global proteomics of HAP1 cells; assay type: cell-based, human; conditions: 100 nM, 6 h and 24 h
Description: Proteomics samples were digested with trypsin using STrap columns following the manufacturer’s protocol (C02-micro, ProtiFi). […] Then, the cell pellets were collected and lysed in 5% SDS containing 1 μL/mL benzonase (E1014, Millipore) and subsequently short sonication to shear genomic DNA (1×2 s pulse, 20% amplitude, microtip, Sonics Vibra Cell). 50 μg protein from the total cell lysate or 80% of the elution fraction of the chemical pulldown were first reduced by 20 mM dithiothreitol (M02712, Fluorochem), and alkylated by 40 mM iodoacetamide (I1149, Sigma). Phosphoric acid and S-Trap protein binding buffer were added to the sample lysates. Then, the SDS lysate/S-Trap buffer were loaded into a S-Trap column (C02-micro-80, ProtiFi). 1 μg of trypsin (V5111, Promega) was used to digest each sample at 37 °C for 20 h. The samples were then eluted and dried by vacuum centrifugation. […]
Raw data were searched against the human database (UP000005640, downloaded 08/21) using DIA-NN (v.1.8.1)[48] by enabling FASTA digest for library-free search and Deep learning-based spectra, RTs, and IMs prediction. […] The protein groups matrix was further analysed using Perseus (2.0.9.0)[49] or R studio (4.3.2). […] Proteins were removed if detected less than 70% across all runs. […]

HAP1 cells [4] = test: Metabolomics with isotopically labeled formate/adenosine in HAP1 cells; assay type: cell-based, human; conditions: HAP1, 100 nM, 13C-D formate 1 mM, 15N adenosine 100 µM, 24 h
Description: Experiments were performed in duplicates. Approximately 1.5 × 10^6 HAP1 wt and NUDT5 KO cells were seeded in IMDM (full) prior to treatment with isotopically labeled metabolites. […] After 24 h, plates were washed with PBS and replaced with IMDM containing dialysed FBS (Gibco). Cells were treated with 1 mM of isotopically labeled sodium formate (Eurisotop, CDLM-6203-0.25) or with 1 mM of isotopically labeled sodium and 100 µM isotopically labeled adenosine (Silantes, 125303601). After 24 h, 5 × 10^6 cells for each replicate was harvested, washed with PBS, immediately snap frozen and stored at −80 °C. Cell pellets were lysed with 150 µL ice-cold 80:20 MeOH:H2O, vortexed and sonicated for 5 minutes on ice. The extract was centrifuged for 10 minutes at 10,000 × g at 4 °C and the supernatant was collected in a glass insert vial. This procedure was repeated and the two supernatants were combined. Solvent was evaporated in a vacuum concentrator. Metabolites were reconstituted in 50 µL pure MeOH. A Vanquish UHPLC system (Thermo Scientific) coupled with an Orbitrap Q Exactive (Thermo Scientific) mass spectrometer was used for the LC-MS analysis. […] Quantification of target metabolites was performed by manually integrating the area under the curve, and data were plotted using GraphPad Prism v.10.

HAP1 cells [5] = test: Titration of NUDT5 degraders and controls against fixed 6-TG (2 µg/mL) in HAP1 cells, cell viability; assay type: cell-based, human
Description: as §2

NUDT5 [6] = target: T2, NUDT5; test: Western blot NUDT5 degradation in HAP1 cells; assay type: cell-based; design: endogenous in cells; host or cells: HAP1
Description: as §3

NUDT5 [7] = target: T3, NUDT5; test: Western blot NUDT5 degradation in HAP1 cells; assay type: cell-based; design: endogenous in cells; host or cells: HAP1; conditions: HAP1 cells, Western blot; read-out: DC50 (half-maximal degradation concentration) of NUDT5
Description: as §3

NUDT5 [8] = target: T2, NUDT5; test: Western blot NUDT5 degradation in A549 cells; assay type: cell-based; design: endogenous in cells; host or cells: HAP1, A549, MCF7; conditions: A549, MCF7 and HAP1, 100 nM, 20 h
Description: as §3

NUDT5 [9] = target: T3, NUDT5; test: NanoBRET NUDT5 target engagement (TE) assay in HEK293 cells; assay type: cell-based; design: expressed in transfected cells; host or cells: HEK293; conditions: for EC50: HEK293 cells, Supplementary Fig. 6B, read-out: NUDT5 NanoBRET target engagement EC50
HAP1 cells [10] = test: Cell viability (CellTiter-Glo) and 6-TG assay in HAP1 WT cells; assay type: cell-based, human
Description: as §1, §2

HL-60 cells = test: Cell viability (CellTiter-Glo) 6-TG assay in HL-60 cells; assay type: cell-based, human
Description: as §1, §2

Structure (SMILES): Nc1nc2nc[nH]c2c(=S)[nH]1 [Compound 6-TG, 6-Thioguanine]
increase in 6-TG IC50, NUDT5 KO versus NUDT5 WT (HAP1 NUDT5 KO cells): four-fold increase
difference in 6-TG sensitivity, NUDT5 KO versus WT (HAP1 cell lines; HAP1, fixed TH1760 50 µM, 72 h, Fig. 4D): 2.8 fold
IC50 (HAP1 cell lines; Homo sapiens, HAP1 WT cells, approximately): ~1000 nM

mechanism of degradation (rescue by neddylation, proteasome, NUDT5 inhibitors and CRBN KO) (NUDT5 [1]): UPS-dependent
NUDT5 degradation (NUDT5 [1]; 100 nM, 6 h, Western blot, Supplementary Fig. 6A): induces degradation of NUDT5
DC50 (NUDT5 [2]): 0.5 nM
DC50 (NUDT5 [7]): 0.3 nM
EC50 (NUDT5 [9]): 37 nM
Structure (SMILES): Cn1c(=O)c2c(nc(N3CCN(C(=O)N4CCC(CN5CCN(c6ccc7c(c6)C(=O)N(C6CCC(=O)NC6=O)C7=O)CC5)CC4)CC3)n2Cc2nnc(-c3ccc(Cl)c(Cl)c3)o2)n(C)c1=O (centres unmarked) [dNUDT5]
ternary complex formation between NUDT5 and CRBN in cells (NUDT5 and CRBN): only dNUDT5 induced proficient ternary complex formation
ZFP91 levels (ZFP91): ZFP91 levels remained unchanged; also recorded: does not affect ZFP91 levels
global proteome analysis, downregulated proteins (HAP1 cells [3]): NUDT5 was the only significantly downregulated protein
de novo derived IMP (HAP1 cells [4]): apparent increase in de novo derived IMP
concentration of maximal rescue of cell viability (HAP1 cells [5]; HAP1, 2 µg/mL 6-TG, 72 h): 50 to 100 nM
rescue of 6-TG-induced toxicity (HAP1 cells [5]; HAP1, 2 µg/mL 6-TG, 72 h): most efficient compound in abrogating 6-TG-induced cell death
boost of cancer cell viability in presence of 6-TG compared to TH5427 and DMSO control (HAP1 cells [5]; peer review file): more than 8 fold
time course of NUDT5 degradation (NUDT5 [6]; 100 nM, up to 72 h): sustained degradation by dNUDT5 over a time course of 72 h
NUDT5 degradation (NUDT5 [6]; HAP1 cells, Western blot, Fig. 3B): induced robust degradation of endogenous NUDT5 protein
NUDT5 downregulation across a panel of cell lines (NUDT5 [8]): robust and consistent NUDT5 downregulation
NUDT5 engagement in live cells (NUDT5 [9]; NanoBRET): engaged their cognate target NUDT5 in live cells

EC50 (NUDT5 [9]): 3 nM
Structure (SMILES): Cn1c(=O)c2c(nc(N3CCNCC3)n2Cc2nnc(-c3ccc(Cl)c(Cl)c3)o2)n(C)c1=O [TH5427, reference compound]
ability to desensitize cells to 6-TG treatment (phenocopy NUDT5 KO) (HAP1 cells [10]): neither inhibitor was able to phenocopy the NUDT5 KO
ability to desensitize cells to 6-TG treatment (phenocopy NUDT5 KO) (HL-60 cells): neither inhibitor was able to phenocopy the NUDT5 KO
rescue of 6-TG-induced toxicity (HAP1 cells [5]; HAP1, 2 µg/mL 6-TG, 72 h): failed to rescue cell viability; also recorded: no signiﬁcant eﬀect

From paper PMC13462928 (Nature Communications, 2026)
